28 compounds from patent US20040058983A1, “Plan-derived and synthetic phenolic compounds and plant extracts, effective in the treatment and prevention of chlamydial infections” (priority 2000, published 2004) can be followed below.

One assay deals with C. pneumoniae. As to the kind of experiment: Direct anti-chlamydial effect of compounds and mixtures on C. pneumoniae (Example 5). The conditions noted are these: 50 μM. Format: cell-based. On the procedure:
Direct Anti-Chlamydial Effect of Plant-Derived Phenolic Compounds, Certain Synthetic Compounds and Mixtures on C. pneumoniae
The concentration used was 50 μM.
The cultivated HL cells are infected with C. pneumoniae EB's. The EB's which have invaded the cell are changed into the metabolically active reticulate body (RB) which are dividing by binary fission in the endosome vacuole or inclusion.
After a certain time (about 72 hr) the C. pneumoniae RB's are condensing back into EB's, after which the inclusions are broken, the host cells are broken and the EB's are liberated. In this method the intention is to verify the inclusions before the breaking up of the host cells.
On the day preceding the infection the host cells are inoculated on a 24-well plate: the cells are harvested by trypsinisation, they are suspended in ca. 5 ml of the nutrition liquid and counted in a Burker's chamber. Each well are seeded using a concentration of 250000-400000 cells/well for cultivation. Before the addition of the cells to the well is if necessary round cover glass (diameter 13 mm) put for staining. Nutrition liquid is added so that the volume is 1 ml/well. On the following day the cells are infected with the desired bacterium.
Solution to be used in the infection and containing chlamydiae particles is mixed throughout. The old nutrition liquid is aspirated away. By the infection the inoculum which has been stored at −70° C. is diluted to an IFU concentration of ca. 10^3 so that the volume of the solution is at least 200 μl/well on a 24-well plate. The cells are infected by centrifuging at 1600 rpm (550×g)/1 hr. The nutrition medium is aspirated away and changed to a maintenance medium containing cyclohexamide and also containing the studied compound (DMSO concentration 0.2%), 1 ml/well. The cells are incubated in a 5% CO2 atmosphere at +35° C. The cells infected with C. pneumoniae are incubated for 3 days. After 2-3 days the maintenance medium is removed and the cells washed with 1×1 ml of PBS. To the wells 200 μl of SPG are added for further infection, harvested with a pipette tip and transferred into tubes. This is used for infecting new cells in the same way as above to test the inhibition of infectivity (chlamydiasidic effect).
The nutrition medium, which is above the cover glass left for staining, is aspirated away. The infected cells are fixed on the cover glass with methanol for 10 min. The cover glass is removed from the well and -transferred onto a suitable fluorescein-conjugated monoclonal antibody on Parafilm in a moist chamber with the cell-containing side down. The cover glass is incubated for 30 min at +37° C. and washed twice with PBS and once with water. Finally it is dried. The cover glass is put with the cell-containing side down on an object glass containing a fixative (e.g. Mounting medium). When viewed under the fluorescent microscope, cell culture specimens infacted with chlamydiae show a characteristic apple-green fluorescence of inclusions against a red counterstained background.
As to `COc1ccccc1-c1cc(=O)c2ccc3ccccc3c2o1` [2′-methoxy-α-naphtoflavone], the Inhibition % was found to be 100%.

For the compound `O=c1oc2cc(O)ccc2cc1-c1nc2ccccc2o1` [3-(2-benzoxazoyl)umbelliferone], the Inhibition % was 28%.

As to `O=C(c1ccccc1)c1cc2c(ccc3ccccc32)oc1=O` [3-benzoylbenzo(F)coumarin], the Inhibition % is 62%.

As for `CCN(CC)c1ccc2cc(C(=O)c3cccs3)c(=O)oc2c1` [7-diethylamino-3-thenoylcoumarin], the Inhibition % is listed as 100%.

Turning to `Oc1cc(O)c2c(c1)O[C@H](c1ccc(O)c(O)c1)[C@@H](O)C2` [(+)-Catechin], the Inhibition % is on record as 76%.

Consider `O=C(O[C@@H]1Cc2c(O)cc(O)cc2O[C@@H]1c1ccc(O)c(O)c1)c1cc(O)c(O)c(O)c1` [(−)-Epicatechin gallate], for which the Inhibition % is listed as 85%.

`Oc1cc(O)c2c(c1)O[C@H](c1ccc(O)c(O)c1)[C@H](O)C2` [(−)-Epicatechin]: the Inhibition % came to 75%.

For the compound `Oc1cc(O)c2c(c1)O[C@H](c1cc(O)c(O)c(O)c1)[C@H](O)C2` [(−)-Epigallocatechin], the Inhibition % was determined as 58%.

In the case of `O=c1cc(-c2ccccc2)oc2c1ccc1ccccc12` [Alpha-naphtoflavone], the Inhibition % was found to be 92%.

In the case of `CCN(CC)c1ccc2cc(-c3nc4ccccc4n3C)c(=O)oc2c1` [Coumarin 30], the Inhibition % was determined as 50%.

As for `Cc1cc(=O)oc2c3c4c(cc12)CCCN4CCC3` [Coumarin 102], the Inhibition % was 63%.

Consider `O=c1oc2c3c4c(cc2c2c1CCC2)CCCN4CCC3` [Coumarin 106], for which the Inhibition % is recorded as 100%.

With `O=c1c(-c2ccc(O)cc2)coc2cc(O[C@@H]3O[C@H](CO)[C@@H](O)[C@H](O)[C@H]3O)ccc12` [Daidzin], the Inhibition % stood at 0%.

On to `Oc1cc(O)c2c(c1)O[C@H](c1ccc(O)c(O)c1)[C@H](O)[C@H]2c1c(O)cc(O)c2c1O[C@H](c1ccc(O)c(O)c1)[C@@H](O)C2` [Procyanidin B1], for which the Inhibition % came to 30%.

In the case of `Oc1cc(O)c2c(c1)O[C@H](c1ccc(O)c(O)c1)[C@H](O)[C@H]2c1c(O)cc(O)c2c1O[C@H](c1ccc(O)c(O)c1)[C@H](O)C2` [Procyanidin B2], the Inhibition % is recorded as 0%.

Take `Oc1ccc(/C=C/c2cc(O)cc(O)c2)cc1` [Resveratrole]: the Inhibition % worked out at 54%.

As to `COc1c2occc2cc2ccc(=O)oc12` [Xanthotoxin], the Inhibition % worked out at 94%.

Take Methoxy psoralen: the Inhibition % is 100%.

Staying with this assay, now noted: Chlamydia pneumoniae.
For `C=C(C)[C@H]1Cc2c(ccc3c2O[C@@H]2COc4cc(OC)c(OC)cc4[C@@H]2C3=O)O1` [Rotenone], the inhibition at 50 µM is 100%.

The assay is the same for the next values; noted with them: Chlamydia pneumoniae; 50 μM; read-out: Inhibition %.
In the case of `CC(=O)CC(c1ccccc1)c1c(O)c2ccccc2oc1=O` (stereo not drawn) [3-(α-acetonylbenzyl)-4-hydroxycoumarin], the inhibition at 50 µM is 0%.

`Cc1c(-c2ccccc2)c(=O)oc2ccccc12` [4-methyl-3-phenylcoumarin]: the inhibition at 50 µM was found to be 0%.

Turning to `COc1ccc2oc(-c3ccccc3OC)cc(=O)c2c1` [6,2′-dimethoxyflavone], the inhibition at 50 µM is 73%.

For `O=C(O)c1cc2cc(Br)cc(Br)c2oc1=O` [6,8-dibromocoumarin-3-carboxylic acid], the inhibition at 50 µM was determined as 0%.

For the compound `Cc1ccc2oc(=O)ccc2c1` [6-methylcoumarin], the inhibition at 50 µM was determined as 71%.

For the compound `O=c1ccc2ccccc2o1` [Coumarin], the inhibition at 50 µM is 28%.

As to `O=c1c(-c2ccc(O)cc2)coc2cc(O[C@@H]3O[C@H](CO)[C@@H](O)[C@H](O)[C@H]3O)cc(O)c12` [Genistin], the inhibition at 50 µM is 37%.

In the case of `COc1cc2ccc(=O)oc2cc1O` [Scopoletin], the inhibition at 50 µM is 96%.

Consider `O=c1ccc2ccc(O)cc2o1` [Umbelliferone], for which the inhibition at 50 µM came out at 75%.

A further assay deals with Ca^2+ intake in the cell. As to the kind of experiment: Effect of the compounds on the calcium influx (Ca2+ intake) to the cell. The conditions noted are these: compound 20 μg/ml; − = decrease, + = increase. Format: cell-based. An excerpt: In the following Table I some of the preferred plant-derived phenolic compounds according to the present invention, the effect of the compounds on the calcium influx to the cell, the antioxidant effect as well as the chemical structure of the compounds are presented.
Regarding `O=c1c(-c2ccc(O)cc2)coc2cc(O[C@@H]3O[C@H](CO)[C@@H](O)[C@H](O)[C@H]3O)ccc12` [Daidzin], the “Effect on Ca^2+ intake [%]” value is “+7.6%”.

Turning to `O=c1c(-c2ccc(O)cc2)coc2cc(O[C@@H]3O[C@H](CO)[C@@H](O)[C@H](O)[C@H]3O)cc(O)c12` [Genistin], the inhibition at 20 µg/mL is 3.39%.
